Measurements as given in US20210054320A1, “NEURON CULTIVATION DEVICE, NEURON CULTIVATING METHOD, CULTIVATED NEURON, ANALYSIS AND IDENTIFICATION OF PROTEIN IN AXON BUNDLE, AND USAGE OF CULTIVATED NEURON” (THE FOUNDATION FOR THE PROMOTION OF INDUSTRIAL SCIENCE, priority 2016, published 2021).

Legend:
Format in all cases: cell-based
[1] = system: motoneurons derived from human iPS cells (409B2 cell lines); experiment: oxidative stress test, Directionality (orientation of axon) after Tau 1 immunostaining; settings: H2O2 3 hour treatment, PBS washing, culture medium with or without Edaravone; evaluated two days after treatment; highest = negative control
Description: Here, cell body spheroids were produced by inoculating motoneurons derived from human iPS cells (409B2 cell lines) in the nonadherent cultivation plate 10. Then, after 10 days of cultivation, the cell body spheroids were inoculated in the first chamber 12a of the module 11 of the cultivation plate 10. Then, after 30 days of cultivation, the treatments of the following (1)-(3) conditions were accomplished.
(1) control PBS (Phosphate Buffered Saline) washing>>>culture medium
(2) H2O2 3 hour treatment>>>PBS washing>>>culture medium
(3) H2O2 3 hour treatment>>>PBS washing>>>culture medium containing Edaravone
Two days after the treatment, evaluation was done after immunostaining by marker Tau 1. The evaluation item was Directionality, which was the orientation of axon. Specifically, the orientations of objects in FIG. 22 were measured In this case, 0 degree indicated the direction of fluid conduit (channel 13). Since the axons were bundled and extended in the same direction, their morphological changes in the channel 13 could be compared between in case of under oxidative stress, as shown in FIG. 22 (b), and in case of under oxidative stress accompanied by application of antioxidant (Edaravone), which was used as neurological disease drug, as shown in FIG. 22 (c). […]

[2] = system: motoneurons derived from human iPS cells (409B2 cell lines); experiment: calcium imaging of motoneuron spheroid with axon bundle after KCl stimulation; settings: 1 [mol] of KCl provided to the cell spheroid after fluorescent treatment
Text: FIG. 13 is a set of photographs showing motoneurons used for calcium imaging. In FIG. 13, (a) is a photograph of a spheroid with a bundle of axons outside the cultivation plate before adding calcium, (b) is a photograph of a spheroid with a bundle of axons outside the cultivation plate after adding calcium. In the present experiment, motoneurons derived from human iPS cells (409B2 cell lines) were used. The cell spheroids of the motoneurons were inoculated in the first chambers 12a and cultivated. The motoneurons and the cell spheroids were gained in the same way as mentioned above and the cultivation was accomplished in the same way as mentioned above. After cultivation, one of the motoneurons with a well grown and extended bundle of axons was extracted or brought out from the module 11 of the cultivation plate 10. Then 1 [mol] of KCl was provided to the cell spheroid, so that fluorescence became intense, as shown in FIG. 13(b), as a result of electrophysiological activity induced by the stimulation of KCl.

[3] = system: motoneurons derived from human iPS cells (409B2 cell lines); experiment: ER stress test on axon bundle (form and orientation of axon); settings: culture fluid including 1.5 [mol] of thapsigargin for 5 hours, evaluated 6 days later, versus untreated
Text: The first experiment was accomplished to confirm the effect of ER stress against motoneuron using thapsigargin. In the first experiment, motoneurons derived from human iPS cells (409B2 cell lines) were used. The cell body spheroids of the motoneurons were inoculated in the first chambers 12a and cultivated. The motoneurons and the cell body spheroids were gained in the same way as mentioned above and the cultivation was accomplished in the same way as mentioned above. After cultivation, one of the motoneurons with a well grown and extended axon bundle was treated with culture fluid including 1.5 [mol] of thapsigargin for 5 hours. Then, 6 days later, the form of the axon bundle was evaluated, as shown in FIG. 17(b), in comparison with another axon bundle of the motoneurons not treated with any thapsigargin, as shown in FIG. 17(a). It can be said that, when suffering stress, the orientation of the axon becomes low or the axon degenerates.

| Structure (SMILES) | Directionality of the axon bundle in the direction of fluid conduit (0 degree), order among conditions [1] | further results |
| --- | --- | --- |
| CC1=NN(c2ccccc2)C(=O)C1 [Edaravone] | the second |  |
| OO [H2O2] | the third |  |
| [Cl-].[K+] [KCl] |  | electrophysiological activity (fluorescence) of motoneuron including cell spheroid and bundle of axons [2]: became electrophysiologically active |
| C/C=C(/C)C(=O)O[C@H]1C(C)=C2[C@H]([C@@H]1OC(=O)CCCCCCC)[C@@](C)(OC(C)=O)C[C@H](OC(=O)CCC)[C@@]1(O)[C@H]2OC(=O)[C@@]1(C)O [thapsigargin] |  | form of the axon bundle under ER stress [3]: became deformed |
